Laboratory results taken from article PMC7890253, “Signal Transduction Mechanisms for Glucagon-Induced Somatolactin Secretion and Gene Expression in Nile Tilapia (Oreochromis niloticus) Pituitary Cells” (Frontiers in Endocrinology, 2021).
One block for each compound: values may come before it.

Legend:
[1] = system: tilapia NIL cells; assay: SL release in primary NIL cell culture (ELISA); type: cell-based, Nile tilapia (Oreochromis niloticus); details: for SL release, dose dependence: mean ± SEM (N = 3)
Description: (§1) To examine the direct effects of GCG on SL release and gene expression in the pituitary, tilapia NIL cells were prepared by the controlled trypsin/DNase II digestion method as described previously ([30]). After that, NIL cells were seeded in poly-D-lysine precoated 24-well plates at ~1.5 × 10^6 cells/mL/well and incubated with test substances for the duration as indicated. After drug treatment, SL release in conditioned medium was immediately determined by the enzyme-linked immunosorbent assay (ELISA) with a detectable range from 0.5 to 500 ng/mL for SL. The assay was optimized in our laboratory by utilizing a polyclonal antibody against tilapia SL ([31]) and a SL-biotin conjugate (GenScript, Nanjing, China). Meanwhile, the cells were rinsed with cold PBS before being lysed by TRIzol reagent (Life Technologies) to measure SL gene expression. After cDNA synthesis, qPCR assays were performed using the primers specific for tilapia SL (forward primer: 5’ […] 3’ and reverse primer: 5’ […] 3’). The same qPCR conditions were maintained as described above, and gene expression levels were analyzed using the 2^−ΔΔCT method. In these experiments, β-actin was used as an internal control for normalizing genes of interest. It has been reported that β-actin is used to normalize SL gene expression in tilapia ([14]), goldfish ([32]), and red drum ([33]).
(§2) For qPCR and ELISA assays, NIL cells were prepared from 30–40 individual fish in each experimental run. For cAMP and IP3 measurements, NIL cells were prepared from ~30 individual fish in each experimental run. For Ca^2+ signal measurements, NIL cells were prepared from 10–12 individual fish. For the Western blot analysis, NIL cells were prepared from ~30 individual fish in each experimental run. Three biological replicates were analyzed, and four technical repeats were performed per sample. All results are expressed as the mean ± SEM (N = 3) and analyzed with ANOVA followed by post-hoc Bonferroni’s test for multiple comparisons. A value of P < 0.05 was regarded as statistically significant. All analyses were performed with GraphPad Prism Software, Inc (San Diego, CA).

[2] = system: tilapia NIL cells; assay: SL gene expression in primary NIL cell culture (qPCR); type: cell-based, Nile tilapia (Oreochromis niloticus); details: for effect on basal SL gene expression: 10 µM test substance
Description: as §1, §2

[3] = system: rat hepatocytes; details: ref [57]; cited from earlier work
[4] = system: rat hepatocytes; details: ref Mine et al. ([59]); cited from earlier work
Source text: Although pituitary GCG-mediated molecular signaling pathways remain largely unknown, GCG action in fish hepatocytes is mediated by the AC/cAMP/PKA pathway ([52], [55]). These findings promote us to investigate similar signaling mechanisms involved in GCGb action in tilapia pituitary cells. […] In contrast, both basal and GCGb-induced SL release and gene expression ...

[5] = system: fish glucagon; details: ref [18]; cited from earlier work
Description: Male Nile tilapia (O. niloticus) with a bodyweight range of 45-55 g were purchased from local aquaria and maintained in aerated 300-liter aquaria at 28°C under 12 h dark/12 h light photoperiod. During tissue sampling, the fish were sacrificed by spinosectomy after anesthesia with 0.05% MS222 (Sigma, St Louis, MO) according to the procedures approved by the Animal Ethics Committee of Sichuan University. The tilapia and human GCGs and the des-His1-[Nle9-Ala11-Ala16] GCG antagonist were synthesized by GL Biochem (Shanghai, China).

[6] = system: tilapia GCGRa; assay: CRE-luciferase reporter assay, HEK293 cells stably expressing tilapia GCGRa; type: cell-based, Nile tilapia (Oreochromis niloticus)
Description: (§3) The open reading frames (ORFs) of tilapia Gcgra and Gcgrb were subcloned in the pcDNA3.1 (+) expression vector (Invitrogen) using high-fidelity Taq DNA polymerase (TOYOBO, Japan) and then HEK293 cell lines with stable expression of pcDNA3.1-GCGRa, and pcDNA3.1-GCGRb, respectively, were established in the presence of 500 µg/mL […] (Invitrogen). The expression of Gcgra and Gcgrb transcripts in these stably transfected cell lines was confirmed by qPCR, and the colonies with the same levels of Gcgra and Gcgrb mRNA expression were selected for subsequent studies. After that, HEK293 cells were co-transfected with the cAMP response element (CRE)-luciferase reporter plasmid, and Renilla luciferase plasmid (pTK-RL) (Promega, Madison, WI), encoding the Renilla luciferase protein, as the internal control using Lipofectamine in Opti-MEM (Invitrogen). […] The luciferase activity of cellular lysates was determined using a Dual-Glo luciferase assay kit (Promega), and the signal was read using a microplate reader (Fluostar OPTIMA, BMGLabtech). The luciferase activities in each treatment group were expressed as relative fold increase compared with the control group.
(§4) Figure 3 Functional characterization of tilapia GCGRa and GCGRb expressed in HEK293 cells. […] All results are expressed as the mean ± SEM (N = 3).

[7] = system: tilapia GCGRb; assay: CRE-luciferase reporter assay, HEK293 cells stably expressing tilapia GCGRb; type: cell-based, Nile tilapia (Oreochromis niloticus); details: HEK293, CRE-luciferase (cAMP), 24 h treatment, 37°C, Luc ratio to Renilla, N = 3
Description: as §3, §4

[8] = system: GCGRb; details: ref [42]; cited from earlier work
Source text: Identification of multiple types of Gcgrs raises a question of whether a given physiological response is mediated by either a specific receptor or multiple types of receptors. We examined the functional similarity and difference of the two tilapia GCGRs.

[9] = 10 µM test substance with GCGb 10 nM, 24 h
[10] = 5 µM test substance with GCGb 10 nM, 24 h
[11] = 1 µM test substance with GCGb 10 nM, 24 h
[12] = 5 µM test substance with GCGb 10 nM (duration not given)
[13] = 50 nM test substance with GCGb 10 nM (duration not given)

Compound: CN(C)CCCn1cc(C2=C(c3c[nH]c4ccccc34)C(=O)NC2=O)c2ccccc21 [GF109203X]
effect on GCGb-stimulated SL release ([1]; 20 µM test substance with GCGb 10 nM, 24 h): neither compound was able to block GCGb stimulated SL release

Compound: O=S(=O)(NCCNC/C=C/c1ccc(Br)cc1)c1cccc2cnccc12 [H89]
effect on GCGb-stimulated SL release [1, 9]: blocked
effect on basal SL release ([1]; 10 µM test substance, 24 h): blocked the basal levels
effect on GCGb-stimulated SL mRNA expression [2, 9]: blocked
effect on basal SL gene expression ([2]; 24 h): blocked the basal levels

Compound: CN([C@@H](Cc1ccc(OS(=O)(=O)c2cccc3cnccc23)cc1)C(=O)N1CCN(c2ccccc2)CC1)S(=O)(=O)c1cccc2cnccc12 [KN62]
effect on GCGb-stimulated SL release [1, 10]: abolished
effect on GCGb-stimulated SL mRNA expression [2, 10]: abolished

Compound: Cl.c1ccc(C2CCCC2NC2=NCCCCCCCCCCC2)cc1 (stereo not shown) [MDL12330A]
effect on GCGb-stimulated SL release [1, 9]: blocked
effect on basal SL release ([1]; 10 µM test substance, 24 h): blocked the basal levels
effect on GCGb-stimulated SL mRNA expression [2, 9]: blocked
effect on basal SL gene expression ([2]; 24 h): blocked the basal levels

Compound: COc1ccc2c(c1)CC[C@@H]1[C@@H]2CC[C@]2(C)[C@@H](NCCCCCCN3C(=O)C=CC3=O)CC[C@@H]12 [U73122]
effect on GCGb-stimulated SL release [1, 9]: blocked the GCGb-stimulated SL release and mRNA expression
effect on GCGb-stimulated SL mRNA expression [2, 9]: blocked the GCGb-stimulated SL release and mRNA expression

Compound: Clc1ccc(C(c2ccc(Cl)cc2)n2cc[n+](CC(OCc3ccc(Cl)cc3Cl)c3ccc(Cl)cc3Cl)c2)cc1 (stereo not shown) [calmidazolium]
effect on GCGb-stimulated SL release [1, 11]: abolished
effect on GCGb-stimulated SL mRNA expression [2, 11]: abolished

Compound: COc1c(C[C@@H](C)OC(=O)Oc2ccc(O)cc2)c2c3c(C[C@@H](C)OC(=O)c4ccccc4)c(OC)c(=O)c4c(O)cc(OC)c(c5c(OC)cc(O)c(c1=O)c52)c43 [calphostin C]
effect on GCGb-stimulated SL release ([1]; 20 nM test substance with GCGb 10 nM, 24 h): neither compound was able to block GCGb stimulated SL release

Compound: C=C[C@@]1(C)CC(=O)[C@]2(O)[C@@]3(C)[C@@H](O)CCC(C)(C)[C@@H]3[C@H](O)[C@H](OC(C)=O)[C@@]2(C)O1 [forskolin]
SL release, dose dependence ([1]; 0.1–100 nM, 24 h): dose-dependently stimulated SL release

Compound: Cc1cc(C)c(S(=O)(=O)Nc2cccc(C(F)(F)F)c2)c(C)c1 [m-3M3FBS]
SL release, dose dependence ([1]; 0.01–10 µM): dose-dependently stimulated SL release

Compound: COC(=O)C1=C(C)NC(C)=C(C(=O)OC)C1c1ccccc1[N+](=O)[O-] [nifedipine]
effect on GCGb-stimulated SL release [1, 12]: effective in blocking the stimulatory effect of GCGb on SL release and mRNA expression
effect on GCGb-stimulated SL mRNA expression [2, 12]: effective in blocking the stimulatory effect of GCGb on SL release and mRNA expression

Compound: C/C=C(/C)C(=O)O[C@H]1C(C)=C2[C@H]([C@@H]1OC(=O)CCCCCCC)[C@@](C)(OC(C)=O)C[C@H](OC(=O)CCC)[C@@]1(O)[C@H]2OC(=O)[C@@]1(C)O [thapsigargin]
effect on GCGb-stimulated SL release [1, 13]: effective in blocking the stimulatory effect of GCGb on SL release and mRNA expression
effect on GCGb-stimulated SL mRNA expression [2, 13]: effective in blocking the stimulatory effect of GCGb on SL release and mRNA expression

Compound: C1CCC[C@H]2CCCN3CC[C@@H](CCCCCC[C@@H]4CCCN5CC[C@@H](CC1)O[C@@H]45)O[C@@H]23 [xestospongin C]
effect on GCGb-stimulated SL release [1, 10]: suppressed
effect on basal SL release ([1]; 5 µM test substance, 24 h): suppressed
effect on GCGb-stimulated SL mRNA expression [2, 10]: suppressed
effect on basal SL mRNA levels ([2]; 5 µM test substance, 24 h): suppressed

Compound: GCG: Glucagon, a 29 amino acid peptide hormone derived from proglucagon (cited work, species not stated)
production of IP3 [3]: induce the production of IP3
Ca^2+ release [4]: can mediate Ca^2+ release from both intracellular Ca^2+ store and extracellular Ca^2+ influx

Compound: des-His1-[Nle9-Ala11-Ala16] GCG antagonist
effect on GCGb-stimulated SL release [1, 11]: stimulatory effect could be blocked
block of the action of fish glucagon [5]: could block the action of fish glucagon

EC50 ([6]; tilapia GCGRa, HEK293, CRE-luciferase (cAMP), 24 h treatment, 37°C, Luc ratio to Renilla, N = 3): 240 nM
EC50 [7]: 6.37 nM
Compound: human GCG: human glucagon, synthesized by GL Biochem
potency at tilapia GCGRa relative to tilapia GCGa (fold less potent) ([6]; fold less potent than tilapia GCGa): 80 fold

Compound: mouse GCG: mouse glucagon (cited work)
activation of zebrafish GCGRb [8]: potently activated
